As a reminder, the pIC50 is −log10 of the IC50, conventionally taken in molar units.

These results are taken from publication PMC5430962, “Retro-inverso Urokinase Receptor Antagonists for the Treatment of Metastatic Sarcomas” (Scientific Reports, 2017).

pIC50: −log10 of the molar value. Where a SMILES comes first, the peptide text is derived from it. Where no end group is shown, it is not given here. [ ]: non-standard residue; d: D form. The star is where a group is joined. Hydrocinnamoyl = O=C(CCc1ccccc1)*; PhAc = O=C(Cc1ccccc1)*; Aib = CC(C)(N)C(=O)O

The test system of data set [1] is HT1080 cells. Put plainly: HT1080 cell migration toward 10% FBS in Boyden chambers. It counts as cell-based, human. Conditions: 10 nM peptide plus 10% FBS, 4 hr, means of three independent experiments in triplicate. The procedure:
(§1) Cell migration in Boyden chambers was carried out for 4 hr at 37 °C in humidified air with 5% CO2, as described. Briefly, cell suspension (1 × 10^5 viable cells/mL serum free medium) was seeded in each upper chamber. Lower chambers were filled with DMEM alone, DMEM containing RI peptides, 10 nM fMLF, or 10% FBS with/without RI peptides. The two compartments were separated by 8 μm pore size polycarbonate filters (Neuroprobe) coated with 2.5 µg/mL vitronectin (Corning). For the invasion assays, 8 μm pore size filters were coated with 50 μg/filter matrigel (BD Biosciences) as previously described[40] and cells (3 × 10^4 viable cells/well) were allowed to invade matrigel for 6 hr at 37 °C, 5% CO2. In all cases, at the end of the assay, cells on the lower filter surface were fixed with ethanol, stained with haematoxylin and 10 random fields/filter were counted at 200× magnification. Each experiment was performed three times in triplicate.

The subject of data set [2] is HT1080 cells. Put plainly: HT1080 matrigel invasion toward 10% FBS in Boyden chambers. Conditions: 10 nM peptide plus 10% FBS, 6 hr, means of three independent experiments in triplicate. Type of data set: cell-based, human. Here is the method:
as §1

The test system of a further data set is monocyte. To be noted: read-out: IC50 of inhibition of fMLF-induced monocyte locomotion; cited from earlier work. From the text:
The uPAR domains DI-DIII are connected by short linker regions. DI-DIII pack together into a concave structure that shifts to an active conformation upon binding to uPA[21], [22]. The linker between DI-DII is more flexible than that between the DII‒DIII domains[23]–[25], and includes the protease-sensitive crucial signaling region, uPAR84–95. In the form of a synthetic peptide, the minimal 88–92 sequence (Ser^88-Arg-Ser-Arg-Tyr^92, SRSRY) retains chemotactic activity and triggers directional cell migration and angiogenesis in vitro and in vivo [15]–[17], [26], [27]. Mechanistically, these ...

In the next data set the test system is GFP-tagged Sarc cells. Put plainly: Growth and spread of subcutaneous GFP-tagged Sarc tumors in nude mice. Type of data set: in vivo, Foxn1nu/nu female nude mice. Conditions: 6 mg/Kg i.p. every day for 12 days, five mice per group. The procedure: To evaluate the effect of RI-3 on tumor growth and vascularization, Sarc cells were injected, as a single-cell suspension (1 × 10^6 cells in 100 µl of sterile PBS, 97% viability), subcutaneously in the flanks of sixteen six-eight weeks old, Foxn1nu/nu female nude mice (Harlan). Animals were randomized into two 8-mice groups with the treatment group receiving 6 mg/kg RI-3 by intra-peritoneal injection every 24 hr, and the control group receiving an equivalent injected volume of vehicle (PBS) only. Time-dependent average weight was monitored every two days. The length and the width of tumors were measured at different time points with a calliper and volumes were calculated using the formula: ½ × (width)[2] × length (mm). After 10 days, blood samples (at least 500 µL/mouse) from the retro-orbital venous plexus of mice anesthetized with 1% isoflurane were collected using a heparinized capillary tube and processed for determination of the Circulating Tumor Cells (CTCs). Then, the animals were sacrificed, the excised tumors were fixed in buffered formalin and processed for paraffin sectioning. Tumor vascularization was assessed by counting vascular channels harbouring red blood cells on CD31 immuno-stained sections in 5 randomly chosen fields per section, in at least two sections per tumor at x 200 as described. Two additional experiments were carried out with the same experimental design by injecting GFP-tagged Sarc cells (1 × 10^6 cells/mouse) subcutaneously in the flanks of twenty-five six-eight weeks old, Foxn1nu/nu female nude mice (Harlan). Animals were treated with 6 mg/kg RI-3, 6 mg/kg RERF or vehicle by intra-peritoneal injection every 24 hr for 10 or 12 days. Tumor growth and the appearance of positive tumor lesions near tumors and in lungs were monitored as brightly visualized by GFP fluorescence with a MacroFluo fluorescence stereomicroscope (Leica). We searched for the presence of GFP-positive nodules on the entire surface of freshly isolated lungs. Lungs were also sliced at approximately 3-mm thickness to examine the parenchyma in depth, and the positive nodules were acquired at higher magnification.

In data set [3] the target is T1, FPR1 (Homo sapiens, UniProt P21462).
T1 construct: expressed in transfected cells; host or cells: rat basophilic leukaemia RBL-2H3/ETFR cells (gift of F. Blasi)
T1 sequence (P21462 1-350): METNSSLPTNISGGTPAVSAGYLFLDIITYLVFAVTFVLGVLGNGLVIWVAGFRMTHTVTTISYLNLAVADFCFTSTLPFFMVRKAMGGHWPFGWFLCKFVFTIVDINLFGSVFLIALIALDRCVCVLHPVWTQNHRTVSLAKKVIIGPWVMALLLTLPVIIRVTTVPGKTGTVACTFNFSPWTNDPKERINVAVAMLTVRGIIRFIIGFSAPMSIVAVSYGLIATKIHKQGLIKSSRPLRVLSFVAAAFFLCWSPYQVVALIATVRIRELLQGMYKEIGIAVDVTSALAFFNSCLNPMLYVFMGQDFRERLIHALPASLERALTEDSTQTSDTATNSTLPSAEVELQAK
As to the kind of experiment: Ligand binding assay: FITC-fMLF binding to RBL-2H3/ETFR cells. To be noted: 100 nM unlabeled peptide 60 min at 4 °C, then 10 nM FITC-fMLF 60 min at 4 °C; fluorescence plate reader. The procedure:
RBL-2H3 cells, RBL-2H3/ETFR cells stably expressing FPR1 (1.5 × 10^6 cells/sample) were pre-incubated with diluents or the indicated unlabeled peptides for 60 min at 4 °C, extensively rinsed with phosphate buffer saline (PBS), exposed to 10 nM FITC-fMLF (Molecular Probes) in PBS for additional 60 min at 4 °C and again rinsed with PBS. Cell-associated fluorescence was quantitated with the fluorescence plate reader Victor 3 (Perkin Elmer) using 485 nm excitation and 535 nm emission filters. The experiments were performed three times in triplicate.

Data set [4] relates to HT1080 cells. As to the kind of experiment: HT1080 cell migration toward peptide as chemoattractant, xCELLigence RTCA. It counts as cell-based, human. Conditions: migration toward 10 nM peptide, monitored 18 hr, quadruplicate. Here is the method:
The kinetics of cell migration was monitored in real time using the xCELLigence Real Time Cell Analysis (RTCA) technology (Acea Bioscience) as described, [80]. For these experiments we used CIM-plates which are provided with interdigitated gold microelectrodes on the bottom side of a filter membrane interposed between a lower and an upper compartment. The lower chamber was filled with serum-free medium or growth medium with/without RI peptides. Cells (2 × 10^4 cells/well) were seeded on filters in serum-free medium. Cell migration was monitored for 18 hr, and each experiment was performed at least twice in quadruplicate.

Data set [5] has as its target T1, FPR1. As to the kind of experiment: Agonist-dependent FPR1 internalization, fluorescence microscopy in RBL-2H3/ETFR cells. It counts as cell-based. Conditions: 100 nM peptide 30 min at 37 °C, then 10 nM FITC-fMLF 30 min at 37 °C; confocal microscopy. The procedure: Cells grown on glass slides to semi-confluence were exposed to diluents or the indicated unlabeled peptides for 30 min at 37 °C, then to 10 nM FITC-fMLF in PBS for additional 30 min at 37 °C and extensively rinsed with PBS. To visualize the cytoskeleton, the cells were fixed with 2.5% formaldehyde, permeabilized with 0.1% Triton X-100 for 10 min at 4 °C, and incubated with 0.1 µg/mL rhodamine-conjugated phalloidin (Sigma-Aldrich) for 40 min. In all cases, coverslips were mounted using 20% (w/v) Mowiol, visualized with a Zeiss 510META-LSM microscope (Carl Zeiss), and z-series were collected at 0.20 µm intervals.

In another data set the test system is sarcoma cell. To be noted: cited from earlier work. The text has this:
(§2) Following on this observation, we developed a series of linear peptides that inhibit the uPAR/FPR1 interaction and reduce to basal levels directional cell migration, invasion and angiogenesis[37]–[40]. While providing proof-of-principle for the strategy, none of these peptides represents an ideal lead molecule: many of these peptides are unstable to enzymatic digestion in human serum, which limits their half-life in vivo, whereas ...

For data set [6] the following is noted: cited from earlier work.
Text: as §2

`CC(C)(NC(=O)[C@@H](CCCNC(=N)N)NC(=O)Cc1ccccc1)C(=O)N[C@H](CCCNC(=N)N)C(N)=O` [RI-4, Phenyl-Acetyl-D-Arg-Aib-D-Arg-NH2] (PhAc-[dR]-[Aib]-[dR]-NH2): the “reduction of FBS-directed cell migration” value in the data set on HT1080 cells [1] is reported as 37%. Moreover, the “reduction of the extent of cell invasion (matrigel)” value (shortened to “reduction … (matrigel)”) with HT1080 cells [2] was 23%.

“cyclized SRSRY: cyclized form of the uPAR 88–92 sequence Ser-Arg-Ser-Arg-Tyr (also: cyclized, mode not given here)”: the negative-log IC50 (pIC50) in the data set on monocyte was 11.00.

Consider `CC(=O)N[C@H](Cc1ccc(O)cc1)C(=O)N[C@H](CCCNC(=N)N)C(=O)N[C@H](CCC(=O)O)C(=O)N[C@H](CCCNC(=N)N)C(N)=O` [RI-1, Ac-(D)-Tyr-(D)-Arg-(D)-Glu-(D)-Arg-NH2] (Ac-[dY][dR][dE][dR]-NH2), for which the “reduction of FBS-directed cell migration” value in the data set with HT1080 cells [1] was 33%. In addition, the “reduction … (matrigel)” value in the data set with HT1080 cells [2] was found to be 27%.

Consider `CC(=O)N[C@@H](CCCNC(=N)N)C(=O)N[C@@H](CCC(=O)O)C(=O)N[C@@H](CCCNC(=N)N)C(=O)N[C@@H](Cc1ccccc1)C(N)=O` [RERF, reference compound] (Ac-RERF-NH2), for which, in the data set with GFP-tagged Sarc cells, the “changes in body weight” value was “did not cause changes in body weight”.

With “N-formyl-Met-Leu-Phe [fMLF, N-formyl-methionyl-leucyl-phenylalanine, reference compound]”, the “effect on binding of FITC-fMLF to RBL-2H3/ETFR cells” value on FPR1 [3] was “strongly reduced”. The “ability to trigger cell migration” value with HT1080 cells [4] was “elicited a considerable cell migration”. Further, the “effect on agonist-dependent FPR1 internalization” value on FPR1 [5] is “prevented”.

Regarding `CC(=O)N[C@H](Cc1ccc(O)cc1)C(=O)N[C@H](CCCNC(=N)N)C(=O)N[C@H](CO)C(=O)N[C@H](CCCNC(=N)N)C(N)=O` [RI-2, Ac-(D)-Tyr-(D)-Arg-(D)-Ser-(D)-Arg-NH2] (Ac-[dY][dR][dS][dR]-NH2), the “reduction of FBS-directed cell migration” value in the data set on HT1080 cells [1] is given as 29%. The “reduction … (matrigel)” value in the data set with HT1080 cells [2] worked out at 23%.

For the compound “Ac-L-Arg-Aib-L-Arg-D-Ca(Me)Phe-NH2 [UPARANT]”, the “inhibition of sarcoma cell invasion in a mouse model of lung colonization” value with sarcoma cell is recorded as “does not inhibit”. Further, the “stability in blood and resistance to enzymatic proteolysis” value in data set [6] is “stable in blood and displays prolonged resistance to enzymatic proteolysis”.

As for `CC(C)(NC(=O)[C@@H](CCCNC(=N)N)NC(=O)CCc1ccccc1)C(=O)N[C@H](CCCNC(=N)N)C(N)=O` [RI-5, 3-Phenyl-Propionyl-D-Arg-Aib-D-Arg-NH2] (Hydrocinnamoyl-[dR]-[Aib]-[dR]-NH2), the “reduction of FBS-directed cell migration” value in the data set with HT1080 cells [1] amounted to 28%. Besides, the “reduction … (matrigel)” value in the data set with HT1080 cells [2] was found to be 9%.
